According to patent US12564555B2, “Continuous processes for manufacturing impregnated porous carriers and for manufacturing pharmaceuticals containing impregnated porous carriers” (Rutgers, The State University of New Jersey, priority 2019, dated 2026):

Assay: Dissolution test, rotating paddle method, DI water (Example 2)
Type: physicochemical
Conditions: 900 ml DI water, 50 rpm, 37° C., FIG. 4
Protocol: Dissolution Behavior: As part of this study, dissolution tests were performed on both pure IBU and impregnated IBU to check the effect of the impregnation process on the dissolution rate and extent of IBU. Dissolution was carried out in 900 ml of DI water at 50 rpm and 37° C. using the rotating paddle method. Samples were withdrawn at predetermined time intervals (every 3 minutes) for 60 min using a peristaltic pump attached to the dissolution device. The amount of released IBU was quantified spectrophotometrically.

IBU released within 5 minutes: less than 10%
SMILES: CC(C)Cc1ccc(C(C)C(=O)O)cc1 (stereo not shown) [pure crystal IBU, Ibuprofen]
